Measured values published in patent publication US8846671B2, “Heterocyclic alkynyl benzene compounds and medical compositions and uses thereof” (Guangzhou Institute of Biomedicine and Health, Chinese …, priority 2010, dated 2014).
Where two headings read alike, the source gives them in different places.

How the values were obtained:
[1] = Pharmacokinetics and bioavailability in rats; assay type: in vivo; settings: SD rats; corresponding pharmaceutical acceptable salt forms
Procedure: Pharmacokinetics and bioavailability in rats. […] The blood samples were collected at the proper time points after administration, add heparin-anticoagulant, and the supernatants of the blood samples were collected (3000 rpm, 10 min) and stored at -20° C. for HPLC-MS analysis. After protein-precipitation procedure with acetonitrile, supernatants were collected after 3000 rpm, 10 min for analysis with HPLC-MS. The data were analyzed with software DAS2.0 to separately acquire the parameters of compartment models and non-compartment models. The bioavailability was calculated according to AUC data.

[2] = biological target: BAF3-T315I cells (Ba/F3 cell line stably expressing BCR/ABL T315I) (Homo sapiens, UniProt P00519, T315I, cells depend on it); assay: tumor cell proliferation, MTT or CCK8 assay, 72 h incubation; assay type: cell-based, mice
Procedure: (§1) The heterocyclic alkynyl benzene compounds at different concentrations (1×10^−10˜1×10^−5M) were incubated for 72 hours individually applied to 6 cell lines K562 (human CML cell line), MOLT-4 (human ALL cell line), U937 (human CML cell line), MEG-01 (human CML cell line), L78 (human lung cancer cell line), Ba/F3-T315I (mice Pro-B cells transformed with Bcr-AblT315I and STI57′-resistant cell line). After incubation for 72 hrs, cell proliferation was then determined by MTT assay or CCK8 assay, and 4 hr incubation is further conducted, the absorbance at 570 nm (CCK8, 450 nm, 650 nm) was measured using enzyme Microplate Reader.

[3] = system: K562R cells (imatinib-resistant cell line); assay: as above; assay type: cell-based; settings: Homo sapiens, K-562R, imatinib-resistant K562R, read-out: IC50 on tumor cell proliferation, K562R cells
[4] = system: K562 (human chronic myelogenous leukemia cell line); assay: as above; assay type: cell-based; settings: K562, 72 h, read-out: IC50 on tumor cell proliferation, K562
Procedure: as §1, with “Reader. […] Based on the inhibition potency of the heterocyclic alkynyl benzene compounds on the cell proliferation, IC50 values were calculated and summarized in the Table 1 and Table 2 (The compounds used were synthesized by Examples 1-40, and the compounds are marked with Drug No. series in Table 1).” for “Reader.”

[5] = system: MOLT-4 (Human acute lymphoblastic leukemia cell line); assay: as above; assay type: cell-based; settings: MOLT-4, 72 h, read-out: IC50 on tumor cell proliferation, MOLT-4
Procedure: as §1, with “Reader. […] Based on the inhibition potency of the heterocyclic alkynyl benzene compounds on the cell proliferation, IC50 values were calculated and summarized in the Table 1 and Table 2 (The compounds used were synthesized by Examples 1-40, and the compounds are marked with Drug No. series in Table 1).” for “Reader.”

U937 Cell line = assay: as above; assay type: cell-based; settings: Homo sapiens, U-937; 72 h, MTT or CCK8; no unit in cell; read-out: IC50 on tumor cell proliferation, U937
Procedure: as §1, with “Reader. […] Based on the inhibition potency of the heterocyclic alkynyl benzene compounds on the cell proliferation, IC50 values were calculated and summarized in the Table 1 and Table 2 (The compounds used were synthesized by Examples 1-40, and the compounds are marked with Drug No. series in Table 1).” for “Reader.”

[6] = Ba/F3 expressing BCR/ABL T315I, 72 h, Table 1; read-out: IC50 on tumor cell proliferation, BAF3-T315I cells

pharmacokinetics parameters, overall judgement [1] | GI50 [2, 6] [nM] | IC50 [3] [nM] | IC50 ([4]; MTT or CCK8, nM) [nM] | IC50 ([5]; MTT or CCK8, nM) [nM] | GI50 ([2]; read-out: IC50 on tumor cell proliferation, BAF3-T315I cells; Ba/F3 expressing BCR/ABL T315I, 72 h, Table 1) [nM] | IC50 ([4]; MTT or CCK8, no unit in cell) [nM] | IC50 (U937 Cell line) [nM] | IC50 ([5]; MTT or CCK8, no unit in cell) [nM] | SMILES
adequate pharmacokinetics parameters | 1100 | 580 | 4.34 | > 100 |  |  |  |  | Cc1cn(-c2cc(NC(=O)c3ccc(C)c(C#Cc4cnc5ccnn5c4)c3)cc(C(F)(F)F)c2)cn1 [D822, 4-methyl-N-(3-(4-methyl-1H-imidazol-1-yl)-5-(trifluoromethyl)phenyl)-3-(2-(pyrazolo[1,5-a]pyrimidin-6-yl)ethynyl)benzamide]
adequate pharmacokinetics parameters |  | 14 | 0.494 | > 100 | 1.65 |  |  |  | Cc1ccc(C(=O)Nc2ccc(CN3CCN(C)CC3)c(C(F)(F)F)c2)cc1C#Cc1cnc2[nH]ncc2c1 [D824, 3-(2-(1H-pyrazolo[3,4-b]pyridin-5-yl)ethynyl)-4-methyl-N-(4-((4-methylpiperazin-1-yl)methyl)-3-(trifluoromethyl)phenyl)benzamide]
adequate pharmacokinetics parameters | 15.7 | 50 | 1.88 | 92.9 |  |  |  |  | Cc1ccc(C(=O)Nc2ccc(CN3CCN(C)CC3)c(C(F)(F)F)c2)cc1C#Cc1cnc(NC2CC2)nc1 [D825, 3-(2-(2-(cyclopropylamino)pyrimidin-5-yl)ethynyl)-4-methyl-N-(4-((4-methylpiperazin-1-yl)methyl)-3-(trifluoromethyl)phenyl)benzamide]
adequate pharmacokinetics parameters | 36.8 | 54 | 0.466 | 7130 |  |  |  |  | Cc1ccc(C(=O)Nc2cc(-n3ccnc3)cc(C(F)(F)F)c2)cc1C#Cc1cnc2[nH]ncc2c1 [D831, N-(3-(1H-imidazol-1-yl)-5-(trifluoromethyl)phenyl)-3-(2-(1H-pyrazolo[3,4-b]pyridin-5-yl)ethynyl)-4-methylbenzamide]
 | 21.8 | 200 | 7.27 | > 100 |  |  |  |  | Cc1cn(-c2cc(NC(=O)c3ccc(C)c(C#Cc4cnc5[nH]ccc5c4)c3)cc(C(F)(F)F)c2)cn1 [D832, 3-(2-(1H-pyrrolo[2,3-b]pyridin-5-yl)ethynyl)-4-methyl-N-(3-(4-methyl-1H-imidazol-1-yl)-5-(trifluoromethyl)phenyl)benzamide]
 | 215 | 190 | 8.7 | > 100 |  |  |  |  | Cc1cn(-c2cc(NC(=O)c3ccc(C)c(C#Cc4cnc(NC[C@H](O)CO)nc4)c3)cc(C(F)(F)F)c2)cn1 [D834, 3-(2-(2-((S)-2,3-dihydroxypropylamino)pyrimidin-5-yl)ethynyl)-4-methyl-N-(3-(4-methyl-1H-imidazol-1-yl)-5-(trifluoromethyl)phenyl)benzamide]
 | 8.58 | 26 | 0.402 | > 100 |  |  |  |  | Cc1ncn(-c2cc(NC(=O)c3ccc(C)c(C#Cc4cnc5[nH]ncc5c4)c3)cc(C(F)(F)F)c2)n1 [D835, 3-(2-(1H-pyrazolo[3,4-b]pyridin-5-yl)ethynyl)-4-methyl-N-(3-(3-methyl-1H-1,2,4-triazol-1-yl)-5-(trifluoromethyl)phenyl)benzamide]
 | 2750 | 510 |  |  |  | > 10000 | 4600 | 7430 | Cc1ccc(C(=O)Nc2ccc(CN3CCOCC3)c(C(F)(F)F)c2)cc1C#Cc1cnc2ccnn2c1 [D931, 4-methyl-N-(4-(morpholinomethyl)-3-(trifluoromethyl)phenyl)-3-(2-(pyrazolo[1,5-a]pyrimidin-6-yl)ethynyl)benzamide]
 | 245 | 32 |  |  |  | 65.7 | 715 | 955 | Cc1ccc(C(=O)Nc2ccc(CN3CC[C@H](N(C)C)C3)c(C(F)(F)F)c2)cc1C#Cc1cnc2ccnn2c1 [D940, (S)—N-(4-((3-(dimethylamino)pyrrolidin-1-yl)methyl)-3-(trifluoromethyl)phenyl)-4-methyl-3-(2-(pyrazolo[1,5-a]pyrimidin-6-yl)ethynyl)benzamide]
 | 102 | 410 |  |  |  | 2.34 | 696 | 340 | Cc1cn(-c2cc(NC(=O)c3ccc(C)c(C#Cc4cnc5ccnn5c4)c3)cc(C(C)(C)C)c2)cn1 [D941, N-(3-tert-butyl-5-(4-methyl-1H-imidazol-1-yl)phenyl)-4-methyl-3-(2-(pyrazolo[1,5-a]pyrimidin-6-yl)ethynyl)benzamide]
 | 102 | 44 |  |  |  | 3.54 | 1300 | 674 | Cc1ccc(C(=O)Nc2ccc(CN3CCN(CCO)CC3)c(C(F)(F)F)c2)cc1C#Cc1cnc2ccnn2c1 [D942, N-(4-((4-(2-hydroxyethyl)piperazin-1-yl)methyl)-3-(trifluoromethyl)phenyl)-4-methyl-3-(2-(pyrazolo[1,5-a]pyrimidin-6-yl)ethynyl)benzamide]
 | 618 | 320 |  |  |  | 8.3 | 2120 | 1630 | Cc1ccc(C(=O)Nc2ccc(CN3CC[C@@H](N(C)C)C3)c(C(F)(F)F)c2)cc1C#Cc1cnc2ccnn2c1 [D943]
 | 243 | 75.1 |  |  |  | 0.997 | > 1000 |  | Cc1cn(-c2cc(F)cc(NC(=O)c3ccc(C)c(C#Cc4cnc5[nH]ncc5c4)c3)c2)cn1 [D963, 3-(2-(1H-pyrazolo[3,4-b]pyridin-5-yl)ethynyl)-N-(3-fluoro-5-(4-methyl-1H-imidazol-1-yl)phenyl)-4-methylbenzamide]
 | 24.2 | 32 |  |  |  | 0.938 | > 1000 |  | Cc1cn(-c2cc(Cl)cc(NC(=O)c3ccc(C)c(C#Cc4cnc5[nH]ncc5c4)c3)c2)cn1 [D964, 3-(2-(1H-pyrazolo[3,4-b]pyridin-5-yl)ethynyl)-N-(3-chloro-5-(4-methyl-1H-imidazol-1-yl)phenyl)-4-methylbenzamide]
 | 6.87 | 5.7 |  |  |  | 0.588 | 817 |  | Cc1ccc(C(=O)Nc2ccc(CN3CC[C@@H](N(C)C)C3)c(C(F)(F)F)c2)cc1C#Cc1cnc2[nH]ncc2c1 [D965, (R)-3-(2-(1H-pyrazolo[3,4-b]pyridin-5-yl)ethynyl)-N-(4-((3-(dimethylamino)pyrrolidin-1-yl)methyl)-3-(trifluoromethyl)phenyl)-4-methylbenzamide]
 | 13.8 |  |  |  |  | 0.324 | 18.5 |  | Cc1ccc(C(=O)Nc2ccc(CN3CC[C@H](N(C)C)C3)c(C(F)(F)F)c2)cc1C#Cc1cnc2[nH]ncc2c1 [D966, (S)-3-(2-(1H-pyrazolo[3,4-b]pyridin-5-yl)ethynyl)-N-(4-((3-(dimethylamino)pyrrolidin-1-yl)methyl)-3-(trifluoromethyl)phenyl)-4-methylbenzamide]
 | 798 | 207 |  |  |  | 0.314 | 5830 |  | Cc1cn(-c2cccc(NC(=O)c3ccc(C)c(C#Cc4cnc5[nH]ncc5c4)c3)c2)cn1 [D967, 3-(2-(1H-pyrazolo[3,4-b]pyridin-5-yl)ethynyl)-4-methyl-N-(3-(4-methyl-1H-imidazol-1-yl)phenyl)benzamide]
 | 6.36 | 32 |  |  |  | 0.701 | > 1000 |  | Cc1cn(-c2cc(NC(=O)c3ccc(C)c(C#Cc4cnc5[nH]ncc5c4)c3)cc(C(C)(C)C)c2)cn1 [D968, 3-(2-(1H-pyrazolo[3,4-b]pyridin-5-yl)ethynyl)-N-(3-tert-butyl-5-(4-methyl-1H-imidazol-1-yl)phenyl)-4-methylbenzamide]
